The text below walks through data of patent publication US8853282B1, “Topical liquid insecticide compositions” (priority 2014, dated 2014).

SMILES strings stand for the structures. In brackets after ≈: the same amount, converted by molar mass.

The conditions of data set [1]: cited from earlier work.
Data set [2] deals with ticks. The note with it: cited from earlier work.
Data set [3] in a line: Solubility in aprotic polar solvents. It counts as physicochemical. From the text: Dinotefuran is a hydrophilic compound that will dissolve in water (approx. 40 g/L). While dinotefuran is most preferred, nitenpyram is highly hydrophilic and could be used in formulations where higher levels of neo-nicotinoid would be desirable. The ether pyrethroid etofenprox will dissolve in some aprotic polar solvents to provide up to 40-60 weight percent while most ester pyrethroids had little solubility. Other ether pyrethroids may be useful provided they have insecticidal activity and may be desirable because of cost and relatively low hydrophobicity.

Data set [4] has as its system fleas. The note with it: cited from earlier work.
Data set [5] concerns felines. The note with it: cited from earlier work.

For the compound `C/C(=N\C#N)N(C)Cc1ccc(Cl)nc1` [Acetamiprid], in data set [1], the “Water Solubility” value was 2.95 mg/mL.
`CCOc1ccc(C(C)(C)COCc2cccc(Oc3ccccc3)c2)cc1` [Etofenprox]: the solubility in water in data set [1] is 0.001 mg/mL (≈ 2.66 µM). In addition, the kill of ticks entry in data set [2] was “will kill both fleas and ticks”. Besides, the “dissolves in some aprotic polar solvents” value in data set [3] is 40-60 weight percent. Besides, in data set [4], the kill of fleas result is “will kill both fleas and ticks”. In addition, in data set [5], the toxicity to felines result was “not toxic to felines”.
On to `CCN(Cc1ccc(Cl)nc1)/C(=C/[N+](=O)[O-])NC` [Nitenpyram], for which the “Water Solubility” value in data set [1] is 840 mg/mL.
With `CN/C(=N/CC1CCOC1)N[N+](=O)[O-]` (centres unmarked) [Dinotefuran], in data set [1], the “Water Solubility” value was 39.83 mg/mL and the dissolve in water entry is on record as “approx. 40 g/L”. For the same compound, the kill of ticks entry in data set [2] is on record as “not ticks”. Also, the kill of fleas result in data set [4] is “will kill fleas”.
